Results published in patent publication US8092020B2 (priority 2002, dated 2012).

Assays:
[1] = test system: Sprague-Dawley rat; details: in vivo, ip
[2] = test system: Sprague-Dawley rat; details: in vivo, ip; remark: listed apart in the source
[3] = biological target: Hemoglobin (Hgb) (Homo sapiens, UniProt P68871+P69905); details: cited from earlier work
[4] = test system: Sprague-Dawley rat; details: in vivo

Chain of Hemoglobin (Hgb) (P68871 2-147): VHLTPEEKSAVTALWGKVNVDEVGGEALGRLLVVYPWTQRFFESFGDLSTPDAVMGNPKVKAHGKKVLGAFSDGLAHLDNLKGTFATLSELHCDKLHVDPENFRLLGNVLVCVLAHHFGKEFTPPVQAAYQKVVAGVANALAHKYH
Chain of Hemoglobin (Hgb) (P69905 2-142): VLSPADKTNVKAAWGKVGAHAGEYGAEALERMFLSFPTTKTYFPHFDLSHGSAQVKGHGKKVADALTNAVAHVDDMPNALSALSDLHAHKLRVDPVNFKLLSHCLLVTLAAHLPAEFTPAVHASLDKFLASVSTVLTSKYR

## botulinum toxin
[1]
  time to animal expiration post-injection: at least 14 hours
[2]
  lowest dose with statistically significant decreases in the pupillary light reflex (p<0.05): 10 pg/kg

## [C-]#[O+] [CO, Carbon monoxide]
[3]
  affinity of Hgb for CO relative to that for oxygen: 200-250 times greater
[4]
  concentration causing significant changes in both arterial and venous coloration: ≥ 500 ppm
  extrapolated EC50 for fundal artery coloration changes: 289±37 ppm
  lowest level with statistically significant arterial coloration changes (p<0.05): 250 ppm
  maximal observed change in arterial coloration in all animals: 38.5%
  near maximal change in arterial coloration in animals which did not expire: 92.3%
